Test results taken from patent US10870832B2, “Use of small molecules to enhance MAFA expression in pancreatic endocrine cells” (Janssen Biotech, Inc., priority 2014, dated 2020).

Columns and labels:
MAFA expression = test: Small molecule screen at Stage 6 or 7, real-time PCR (Example 2); format: cell-based, human; settings: added at Stage 7, 1 μM, H1-derived cells at air-liquid interface
Description: Cells of the human embryonic stem cell line H1 (WA01) at passage 42 were seeded as single cells at 1×10^5 cells/cm^2 on MATRIGEL™ (1:30 dilution)-coated dishes in a media comprising of DMEM-F12, GlutaMAX™ (1:100 dilution), 0.25 mM ascorbic acid, 100 ng/ml of FGF2 (R & D systems, MN), 1 ng/ml of TGF-β, ITS-X (1:100 dilution), 2% FAF-BSA, and 20 ng/ml of IGF-1, supplemented with 10 μM of Y-27632. Forty-eight hours post-seeding, the cultures were washed in incomplete PBS (phosphate buffered saline without Mg or Ca) followed by incubation with 1× TrypLE™ Express Enzyme (Life Science; Catalog No. 14190) for 3 to 5 minutes at 37° C. The released cells were rinsed with DMEM-F12 and spun at 1000 rpm for 5 minutes. The resulting cell pellet was resuspended in DMEM-F12 supplemented with 10 μM Y-27632, 1× GlutaMAX™, 0.25 mM ascorbic acid, 100 ng/ml FGF2, 1 ng/ml TGF-β, ITS-X at a 1:100 dilution, 2% FAF-BSA and 20 ng/ml of IGF-1 and the single cell suspension was seeded at approximately 1.3 to 1.5×10^5 cells/cm^2. The cultures were fed every day with medium and differentiation, according to the following protocol, was initiated 48 hours following seeding resulting in an about 90% starting confluency. […]
At Stages 6 or 7, various small molecules were added and their effect was evaluated by real-time PCR.

Plk1(h) = Plk1(h) (Homo sapiens, UniProt P53350); test: Kinase profiling of R428; format: biochemical; settings: 100 μM ATP, lower number = more robust inhibition
Plk1(h), sequence (P53350 whole entry): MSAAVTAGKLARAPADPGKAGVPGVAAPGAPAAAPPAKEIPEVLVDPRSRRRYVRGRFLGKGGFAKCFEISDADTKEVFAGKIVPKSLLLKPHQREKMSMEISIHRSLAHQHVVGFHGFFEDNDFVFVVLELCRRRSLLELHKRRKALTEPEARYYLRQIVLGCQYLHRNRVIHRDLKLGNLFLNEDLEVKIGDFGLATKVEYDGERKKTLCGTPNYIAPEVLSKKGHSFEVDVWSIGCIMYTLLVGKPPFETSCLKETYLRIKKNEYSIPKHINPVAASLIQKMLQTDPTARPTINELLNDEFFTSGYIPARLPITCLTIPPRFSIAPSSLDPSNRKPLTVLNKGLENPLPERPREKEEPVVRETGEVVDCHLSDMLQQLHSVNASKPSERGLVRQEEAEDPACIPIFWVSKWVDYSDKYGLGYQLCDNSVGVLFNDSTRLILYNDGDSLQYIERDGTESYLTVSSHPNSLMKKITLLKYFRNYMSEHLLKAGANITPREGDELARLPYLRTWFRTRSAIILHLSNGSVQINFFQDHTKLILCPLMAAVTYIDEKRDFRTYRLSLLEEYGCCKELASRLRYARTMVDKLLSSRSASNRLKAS
Description: (§1) The efficiency of the AXL inhibitor R428 for targeting different kinases was assessed by Kinase Profiling Services using 100 μM ATP concentration (EMD Millipore). R428 was tested at 1 and 10 μM. Table IV lists the kinases profiled along with the efficiency in targeting the kinases with a lower number indicating a more robust inhibition of a particular kinase.

Axl(h) = biological target: T1, Axl(h) (Homo sapiens, UniProt P30530); test: Kinase profiling of R428; format: biochemical; settings: for efficiency in targeting Axl(h): 100 μM ATP, lower number = more robust inhibition
T1 sequence (P30530 26-894): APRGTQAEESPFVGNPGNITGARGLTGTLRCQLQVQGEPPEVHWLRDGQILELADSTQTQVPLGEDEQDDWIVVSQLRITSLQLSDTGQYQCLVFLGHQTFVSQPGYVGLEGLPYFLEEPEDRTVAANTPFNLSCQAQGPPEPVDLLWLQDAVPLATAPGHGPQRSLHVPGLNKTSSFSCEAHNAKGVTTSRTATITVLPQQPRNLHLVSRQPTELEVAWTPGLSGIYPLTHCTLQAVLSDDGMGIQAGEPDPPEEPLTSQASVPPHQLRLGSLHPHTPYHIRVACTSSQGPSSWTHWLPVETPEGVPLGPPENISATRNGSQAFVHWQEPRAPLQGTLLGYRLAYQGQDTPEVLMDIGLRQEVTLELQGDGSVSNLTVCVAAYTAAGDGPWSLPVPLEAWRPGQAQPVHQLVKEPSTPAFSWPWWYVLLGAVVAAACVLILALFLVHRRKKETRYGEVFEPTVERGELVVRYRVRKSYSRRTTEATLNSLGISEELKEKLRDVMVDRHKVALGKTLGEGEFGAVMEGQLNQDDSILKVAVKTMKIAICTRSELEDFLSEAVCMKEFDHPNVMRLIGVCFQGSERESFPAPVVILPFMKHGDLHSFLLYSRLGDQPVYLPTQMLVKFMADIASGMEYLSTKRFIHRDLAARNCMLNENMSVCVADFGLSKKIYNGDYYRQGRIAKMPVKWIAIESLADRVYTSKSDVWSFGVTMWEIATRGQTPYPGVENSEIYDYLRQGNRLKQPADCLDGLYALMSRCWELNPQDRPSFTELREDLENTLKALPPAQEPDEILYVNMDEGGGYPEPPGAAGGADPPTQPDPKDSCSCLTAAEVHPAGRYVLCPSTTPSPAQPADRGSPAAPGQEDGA
Description: as §1

PAK4(h) = PAK4(h) (Homo sapiens, UniProt O96013); test: Kinase profiling of R428; format: biochemical; settings: 100 μM ATP, lower number = more robust inhibition
PAK4(h), sequence (O96013 whole entry): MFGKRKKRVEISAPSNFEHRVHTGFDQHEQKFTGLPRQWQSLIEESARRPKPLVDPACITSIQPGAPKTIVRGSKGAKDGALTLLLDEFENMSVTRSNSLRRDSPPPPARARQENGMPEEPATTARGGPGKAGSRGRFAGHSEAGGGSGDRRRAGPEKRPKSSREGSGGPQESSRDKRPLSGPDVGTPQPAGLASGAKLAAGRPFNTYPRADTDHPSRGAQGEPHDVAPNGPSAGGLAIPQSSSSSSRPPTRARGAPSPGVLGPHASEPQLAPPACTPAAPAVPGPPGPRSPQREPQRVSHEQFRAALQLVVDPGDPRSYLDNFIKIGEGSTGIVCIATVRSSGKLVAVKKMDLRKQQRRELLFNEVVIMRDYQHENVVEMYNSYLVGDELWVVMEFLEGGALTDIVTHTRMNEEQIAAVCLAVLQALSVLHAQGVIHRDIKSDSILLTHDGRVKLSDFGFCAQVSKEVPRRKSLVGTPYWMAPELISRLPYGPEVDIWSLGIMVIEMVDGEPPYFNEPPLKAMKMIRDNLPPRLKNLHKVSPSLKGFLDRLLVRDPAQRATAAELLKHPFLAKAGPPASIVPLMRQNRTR
Description: as §1

SAPK3(h) = SAPK3(h) (Homo sapiens, UniProt P53778); test: Kinase profiling of R428; format: biochemical; settings: 100 μM ATP, lower number = more robust inhibition
SAPK3(h), sequence (P53778 whole entry): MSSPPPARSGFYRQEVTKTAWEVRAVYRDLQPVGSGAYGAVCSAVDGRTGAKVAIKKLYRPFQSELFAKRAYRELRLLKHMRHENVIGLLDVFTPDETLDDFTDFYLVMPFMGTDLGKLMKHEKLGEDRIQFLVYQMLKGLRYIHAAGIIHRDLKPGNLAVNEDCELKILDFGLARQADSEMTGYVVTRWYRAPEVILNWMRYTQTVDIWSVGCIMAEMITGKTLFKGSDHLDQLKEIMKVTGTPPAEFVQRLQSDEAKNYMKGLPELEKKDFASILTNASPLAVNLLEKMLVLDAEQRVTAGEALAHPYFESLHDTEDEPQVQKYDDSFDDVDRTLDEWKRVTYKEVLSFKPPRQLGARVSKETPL
Description: as §1

NEK2(h) = NEK2(h) (Homo sapiens, UniProt P51955); test: Kinase profiling of R428; format: biochemical; settings: 100 μM ATP, lower number = more robust inhibition
NEK2(h), sequence (P51955 whole entry): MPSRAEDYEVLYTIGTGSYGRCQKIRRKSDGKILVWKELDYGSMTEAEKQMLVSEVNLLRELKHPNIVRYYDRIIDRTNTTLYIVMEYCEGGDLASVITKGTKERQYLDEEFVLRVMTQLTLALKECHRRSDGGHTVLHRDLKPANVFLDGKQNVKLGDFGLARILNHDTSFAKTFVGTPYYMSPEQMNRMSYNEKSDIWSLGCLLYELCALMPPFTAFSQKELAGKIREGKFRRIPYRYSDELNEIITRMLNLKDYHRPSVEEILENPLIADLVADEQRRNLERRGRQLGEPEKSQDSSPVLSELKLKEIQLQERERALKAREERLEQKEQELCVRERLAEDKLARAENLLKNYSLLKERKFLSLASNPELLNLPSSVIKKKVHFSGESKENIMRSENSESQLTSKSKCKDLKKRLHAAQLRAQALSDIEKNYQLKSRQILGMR
Description: as §1

CK2α2(h) = CK2α2(h) (Homo sapiens, UniProt P19784); test: Kinase profiling of R428; format: biochemical; settings: 100 μM ATP, lower number = more robust inhibition
CK2α2(h), sequence (P19784 whole entry): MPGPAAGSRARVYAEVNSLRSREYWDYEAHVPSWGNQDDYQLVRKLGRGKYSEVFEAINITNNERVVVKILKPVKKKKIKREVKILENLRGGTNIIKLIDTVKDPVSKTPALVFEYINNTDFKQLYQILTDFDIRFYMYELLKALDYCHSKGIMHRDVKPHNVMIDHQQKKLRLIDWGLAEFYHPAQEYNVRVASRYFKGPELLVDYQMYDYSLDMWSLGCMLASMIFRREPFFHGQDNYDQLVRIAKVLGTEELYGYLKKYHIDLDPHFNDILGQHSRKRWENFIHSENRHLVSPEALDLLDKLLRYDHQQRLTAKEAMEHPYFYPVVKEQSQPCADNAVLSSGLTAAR
Description: as §1

FGFR1(h) = FGFR1(h) (Homo sapiens, UniProt P11362); test: Kinase profiling of R428; format: biochemical; settings: for efficiency in targeting FGFR1(h): 100 μM ATP, lower number = more robust inhibition
FGFR1(h), sequence (P11362 22-822): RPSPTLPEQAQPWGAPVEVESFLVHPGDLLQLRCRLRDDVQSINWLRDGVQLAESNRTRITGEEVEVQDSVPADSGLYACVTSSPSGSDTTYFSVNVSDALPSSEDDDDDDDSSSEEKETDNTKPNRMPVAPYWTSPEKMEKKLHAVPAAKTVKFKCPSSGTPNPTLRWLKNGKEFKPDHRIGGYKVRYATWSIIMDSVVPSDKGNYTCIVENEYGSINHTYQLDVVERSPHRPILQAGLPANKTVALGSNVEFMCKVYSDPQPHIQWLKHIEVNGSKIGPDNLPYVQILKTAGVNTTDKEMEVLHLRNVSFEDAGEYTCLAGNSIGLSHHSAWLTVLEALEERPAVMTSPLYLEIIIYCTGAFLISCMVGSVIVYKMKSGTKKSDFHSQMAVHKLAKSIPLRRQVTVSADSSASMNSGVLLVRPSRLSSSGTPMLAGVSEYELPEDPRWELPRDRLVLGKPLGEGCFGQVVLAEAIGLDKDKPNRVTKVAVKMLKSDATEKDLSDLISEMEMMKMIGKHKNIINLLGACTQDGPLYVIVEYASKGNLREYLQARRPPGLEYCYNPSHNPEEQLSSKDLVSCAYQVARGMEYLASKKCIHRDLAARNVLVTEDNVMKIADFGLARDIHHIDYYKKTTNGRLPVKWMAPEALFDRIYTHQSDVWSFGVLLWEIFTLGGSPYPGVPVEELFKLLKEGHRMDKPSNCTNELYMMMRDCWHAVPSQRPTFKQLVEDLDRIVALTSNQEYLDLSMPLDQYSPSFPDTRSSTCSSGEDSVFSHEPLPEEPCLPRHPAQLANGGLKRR
Description: as §1

Nc1nc(Nc2ccc3c(c2)CC[C@@H](N2CCCC2)CC3)nn1-c1cc2c(nn1)-c1ccccc1CCC2 [R428, 1H-1,2,4-Triazole-3,5-diamine, 1-(6,7-dihydro-5H-benzo[6,7]cyclohepta[1,2-c]pyridazin-3-yl) N3-[(7S)-6,7,8,9-tetrahydro-7-(1-pyrrolidinyl)-5H-benzocyclohepten-2-yl]-]
expression of MAFA as compared to untreated cultures (MAFA expression): significantly upregulated | efficiency in targeting Plk1(h) (Plk1(h); R428 @ 1 μM): 83 | efficiency in targeting Plk1(h) (Plk1(h); R428 @ 10 μM): 65 | efficiency in targeting Axl(h) (Axl(h); R428 @ 1 μM): −1 | efficiency in targeting Axl(h) (Axl(h); R428 @ 10 μM): −1 | inhibition of AXL (in words) (Axl(h); kinase profiling results): inhibits AXL as expected | efficiency in targeting PAK4(h) (PAK4(h); R428 @ 1 μM): 97 | efficiency in targeting PAK4(h) (PAK4(h); R428 @ 10 μM): 73 | efficiency in targeting SAPK3(h) (SAPK3(h); R428 @ 1 μM): 106 | efficiency in targeting SAPK3(h) (SAPK3(h); R428 @ 10 μM): 108 | efficiency in targeting NEK2(h) (NEK2(h); R428 @ 1 μM): 60 | efficiency in targeting NEK2(h) (NEK2(h); R428 @ 10 μM): 10 | efficiency in targeting CK2α2(h) (CK2α2(h); R428 @ 1 μM): 112 | efficiency in targeting CK2α2(h) (CK2α2(h); R428 @ 10 μM): 97 | efficiency in targeting FGFR1(h) (FGFR1(h); R428 @ 1 μM): 17 | efficiency in targeting FGFR1(h) (FGFR1(h); R428 @ 10 μM): 1 | inhibition of FGFr1 (in words) (FGFR1(h); at 1 and 10 μM): potently inhibits
